This assay deals with T1, purified rabbit bone collagenase (Oryctolagus cuniculus, UniProt P13943).
T1 construct: from tissue; host or cells: rabbit bone
T1 sequence (P13943 99-468): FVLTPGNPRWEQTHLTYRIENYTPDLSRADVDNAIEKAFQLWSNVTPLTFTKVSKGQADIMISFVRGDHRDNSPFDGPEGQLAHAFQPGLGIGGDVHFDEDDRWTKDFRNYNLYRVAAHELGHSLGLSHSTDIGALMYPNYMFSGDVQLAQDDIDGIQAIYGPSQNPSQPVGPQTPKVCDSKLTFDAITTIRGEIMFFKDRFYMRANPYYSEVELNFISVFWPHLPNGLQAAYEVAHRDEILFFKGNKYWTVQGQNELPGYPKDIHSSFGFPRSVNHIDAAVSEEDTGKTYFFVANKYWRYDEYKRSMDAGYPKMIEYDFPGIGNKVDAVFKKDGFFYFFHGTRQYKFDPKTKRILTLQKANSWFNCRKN
In words: Collagenase inhibitor assay (14C-acetylated rat skin Type I collagen as substrate). Format: biochemical. The following applies: 5-15 min preincubation at 37° C., 37° C. overnight, read-out: IC50 (amount of compound which inhibits a known amount of enzyme by 50%). On the procedure: The test is performed essentially as in Cawston and Barrett Anal. Biochem. 99, 340-345 (1979). Compounds for testing are dissolved in methanol and added to purified rabbit bone collagenase in buffer. After a 5-15 min incubation at 37° C., the assay tubes are cooled to 4° C. and ^14 C-acetylated rat skin Type I collagen is added. The assay tubes are incubated at 37° C. overnight. The ^14 C-collagen forms insoluble fibrils which are the substrate for the enzyme.
To terminate the assay, the assay tubes are spun at 12000 rpm for 15 min. Undigested ^14 C-collagen is pelleted, digested ^14 C-collagen is found as soluble peptides in the supernatant. A sample of the supernatant is taken for liquid scintillation counting.

By IC50 is commonly meant the midpoint of a concentration-inhibition curve.

On to `CNC(=O)[C@H](Cc1ccc(OC)cc1)NC(=O)C(CC(C)C)C(S)CC(=O)OC` (single isomer, unassigned) [2 A], for which the IC50 is 3.9 to 6.4 nM. The same measure for `CNC(=O)[C@H](Cc1ccccc1)NC(=O)C(CC(C)C)C(S)CC(=O)OC` (single isomer, unassigned) [10 A]: 8.3 nM; for `CNC(=O)[C@H](Cc1ccc(OC)cc1)NC(=O)C(CC(C)C)C(S)CC(=O)OCc1ccccc1` (single isomer, unassigned) [4 C]: 230 nM; for `CNC(=O)[C@H](Cc1ccc(OC)cc1)NC(=O)C(CC(C)C)C(S)CC(=O)OCc1ccccc1` (single isomer, unassigned) [4 A]: 31 nM. The same measure for `CNC(=O)CC(S)C(CC(C)C)C(=O)N[C@@H](Cc1ccc(OC)cc1)C(=O)NC` (single isomer, unassigned) [8 A]: 4.7 to 14 nM; for `CNC(=O)[C@H](Cc1ccc(OC)cc1)NC(=O)C(CC(C)C)C(S)CC(=O)OC` (single isomer, unassigned) [2 B]: 72 nM.

With `CNC(=O)[C@H](Cc1ccc(OC)cc1)NC(=O)C(CC(C)C)C(S)CC(=O)OC` (mixture of isomers) [2 mixture of diastereoisomers], the IC50 was 100 nM. Consider `CNC(=O)[C@H](Cc1ccc(OC)cc1)NC(=O)C(CC(C)C)C(S)CC(=O)OCc1ccccc1` (single isomer, unassigned) [4 D], for which the IC50 stood at 12600 nM.

Consider `CNC(=O)[C@H](Cc1ccc(OC)cc1)NC(=O)C(CC(C)C)C(S)CC(=O)OCc1ccccc1` (single isomer, unassigned) [4 B], for which the IC50 was 270 nM.

For the origin of these results see US4937243A, “Thiol carboxylic acid derivatives and their use as colagenase inhibitors” (Beecham Group p.l.c., priority 1986, dated 1990).
